Laboratory results published in patent US9028856B2, “Synergistic pesticide compositions” (priority 2008, dated 2015).

Test system: Aedes aegypti mosquito
Assay: USDA Petri Dish Method, 3 min exposure to treated glazed tile
Assay type: in vivo
Conditions: Aedes aegypti
Experimental: Treatments were allowed to dry overnight. USDA Petri Dish Method was used as initial screening protocol. Twenty, 4-6 day old female Aedes aegypti mosquitoes were exposed to each treatment for 3 minutes and then moved to a clean untreated white paper index card. Treatments were replicated a minimum of three times. Mosquito knockdown was evaluated at various intervals through 7 hours after exposure. A small cotton ball soaked in sucrose solution was added on the screen top of the petri-dish as a drinking source. Mortality was evaluated at 24 hours after exposure.
MATERIALS AND METHODS: Solutions of resmethrin at 1 and 0.5% AI were prepared with and without adjuvant in acetone. […] USDA Petri Dish Method was used as initial screening protocol. Twenty, 4-6 day old female Aedes aegypti mosquitoes were exposed to each treatment for 3 minutes and then moved to a clean untreated white paper index card. Treatments were replicated a minimum of three times. Mosquito knockdown was evaluated at 3 minute intervals for the first 15 minutes and then at 5 minute intervals for the remainder of an hour. A small cotton ball soaked in sucrose solution was added on the screen top of the petri-dish as a drinking source. Mortality was evaluated at 24 hours after exposure.
Treatments were allowed to dry overnight. USDA Petri Dish Method was used as initial screening protocol. Twenty, 4-6 day old female Aedes aegypti mosquitoes were exposed to each treatment for 3 minutes and then moved to a clean untreated white paper index card. Treatments were replicated a minimum of three times. Mosquito knockdown was evaluated at various intervals through 6 hours after exposure. A small cotton ball soaked in sucrose solution was added on the screen top of the petri-dish as a drinking source. Mortality was evaluated at 24 hours after exposure.
Treatments were allowed to dry overnight. USDA Petri Dish Method was used as initial screening protocol. Twenty, 4-6 day old female Aedes aegypti mosquitoes were exposed to each treatment for 3 minutes and then moved to a clean untreated white paper index card. Treatments were replicated a minimum of three times. Mosquito knockdown was evaluated at 5 minute intervals for the first hour and then at 2, 4 and 6 hours. A small cotton ball soaked in sucrose solution was added on the screen top of the petri-dish as a drinking source. Mortality was evaluated at 24 hours after exposure.
Treatments were allowed to dry overnight. USDA Petri Dish Method was used as initial screening protocol. Twenty, 4-6 day old female Aedes aegypti mosquitoes were exposed to each treatment for 3 minutes and then moved to a clean untreated white paper index card. Treatments were replicated a minimum of three times. Mosquito knockdown was evaluated at 3-5 minute intervals for the first hour. A small cotton ball soaked in sucrose solution was then added on the screen top of the petri-dish as a drinking source. Mortality was evaluated at 24 hours after exposure.
Treatments were allowed to dry overnight. USDA Petri Dish Method was used as initial screening protocol. Twenty, 4-6 day old female Aedes aegypti mosquitoes were exposed to each treatment for 3 minutes and then moved to a clean untreated white paper index card. Treatments were replicated a minimum of three times. Mosquito knockdown was evaluated at various intervals through 2 hours after exposure. A small cotton ball soaked in sucrose solution was then added on the screen top of the petri-dish as a drinking source. Mortality was evaluated at 24 hours after exposure.
Treatments were allowed to dry overnight. USDA Petri Dish Method was used as initial screening protocol. Twenty, 4-6 day old female Aedes aegypti mosquitoes were exposed to each treatment for 3 minutes and then moved to a clean untreated white paper index card. Treatments were replicated a minimum of three times. Mosquito knockdown was evaluated at various hourly intervals. […]

[1] = Table 56, glazed tile, 3 min exposure
[2] = Table 56, glazed tile, 3 min exposure, adjuvant = Compound A 1% + Compound B 0.5%

Row | SMILES | Average % Knockdown & Mortality after 1 hr (Table 78, clothianidin study, glazed tile, 3 min exposure, adjuvant = Compound A 1% + Compound B 0.5%, 1 hr) | Average % Knockdown & Mortality after 2 hr (Table 78, clothianidin study) | Average % Knockdown & Mortality after 4 hr (Table 78, clothianidin study) | Average % Knockdown & Mortality after 24 hr (Table 78, clothianidin study) | Average % Knockdown & Mortality after 4 hr [1] | Average % Knockdown & Mortality after 6 hr [1] | Average % Knockdown & Mortality after 24 hr [1] | Average % Knockdown & Mortality after 2 hr [2]
1 | CN/C(=N\[N+](=O)[O-])NCc1cnc(Cl)s1 [Clothianidin (1%)] | 0% | 0% | 0% | 0% |  |  |  | 
2 | CC[S+]([O-])c1c(C#N)nn(-c2c(Cl)cc(C(F)(F)F)cc2Cl)c1N (stereo not drawn) [Ethiprole (.01%)] |  |  |  |  | 2% | 12% | 17% | 0%
3 | CC[S+]([O-])c1c(C#N)nn(-c2c(Cl)cc(C(F)(F)F)cc2Cl)c1N (stereo not drawn) [Ethiprole (.1%)] |  |  |  |  | 3% | 15% | 25% | 3%
